Reference: patent US11286268B1, “EIF4E-inhibiting compounds and methods” (EFFECTOR THERAPEUTICS, INC., priority 2019, dated 2022)
Where two headings read alike, the source gives them in different places.

Target: recombinant eIF4E (Homo sapiens (Human), UniProt P06730)
Experiment: Fluorescence polarization competition assay for eIF4E binding potency
Description: Compounds were screened for eIF4E binding potency using a fluorescence polarization competition assay. All binding reactions were performed in fluorescence polarization buffer (FPB) containing 20 mM Tris pH 7.5, 100 mM NaCl, 1 mM DTT, and 0.02% Tween-20. Final binding reactions contained 75 nM recombinant eIF4E (Beryllium, custom order), 20 nM EDA-m^7GDP-ATTO-550 (Jena Bioscience, NU-827-550) and varying concentrations of the inhibitory compound of interest. Final DMSO concentration in each reaction was 1%.
eIF4E protein was pre-incubated with EDA-m^7GDP-ATTO-550 in FPB at 2× concentrations for 5 minutes prior to the addition of compounds. Compounds (100×) were prepared using 3-fold serial dilutions in 100% DMSO, and subsequently diluted 1:50 in FPB to produce 2× stocks. 50 μl of 2× eIF4E/EDA-m^7GDP-ATTO-550 were transferred to the wells of a 96-well half-area black flat bottom polystyrene plate. 50 μl of 2× test compound were added, and binding reactions were allowed to equilibrate for 30 minutes at room temperature while protected from light. The fluorescent polarization signal was detected using a Victor 2 multi-label counter (Perkin Elmer) and the concentration necessary to achieve inhibition of eIF4E/EDA-m^7GDP-ATTO-550 binding by 50% (IC50) was calculated using data from an 8-point compound dilution series.
In Table 4A, IC50 values of less than 0.05 μM are labelled as “+++”, from 1 to 0.05 μM are labelled as “++”, and greater than 1 μM are labelled as “+”. ND=not determined.

[1] = fluorescence polarization competition, 75 nM recombinant eIF4E, 20 nM EDA-m7GDP-ATTO-550, IC50 class, read-out: elF4E FP
[2] = inhibition of eIF4E/EDA-m7GDP-ATTO-550 binding by 50%, Table 4B calculated values, read-out: IC50

Chain of recombinant eIF4E (P06730 whole entry): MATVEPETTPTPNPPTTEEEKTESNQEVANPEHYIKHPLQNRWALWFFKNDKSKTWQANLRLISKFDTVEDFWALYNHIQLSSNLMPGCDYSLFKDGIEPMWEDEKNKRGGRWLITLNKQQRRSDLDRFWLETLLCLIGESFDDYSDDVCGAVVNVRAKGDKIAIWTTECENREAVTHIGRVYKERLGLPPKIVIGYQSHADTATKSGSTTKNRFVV

Row | IC50 [1] [nM] | IC50 [2] [nM] | Structure (SMILES)
1 | > 1000 | 26900 | CC(C)(C#N)c1cc(C(=O)O)cc(-c2cc(Cl)ccc2OCCn2cnc3cnc(C#N)cc3c2=O)c1 [compound 110]
2 | 50 to 1000 | 434 | N#Cc1cc2c(=O)n(CCOc3ccc(Cl)cc3-c3ccc(OC(F)F)c(C(=O)O)c3)cnc2cn1 [compound 111]
3 | > 1000 | > 3000 | CS(=O)(=O)c1cc(C(=O)O)cc(-c2cc(Cl)ccc2OCCn2cnc3cnc(C#N)cc3c2=O)c1 [compound 112]
4 | 50 to 1000 | 804 | N#Cc1cc2c(=O)n(CCOc3ccc(Cl)cc3-c3ccc(OC(F)(F)F)c(C(=O)O)c3)cnc2cn1 [compound 113]
5 | > 1000 | > 3000 | N#Cc1cc2c(=O)n(CCOc3ccc(Cl)cc3-c3cc(C(=O)O)c4cc[nH]c4n3)cnc2cn1 [compound 117]
6 | > 1000 | 9130 | COc1ccc(OCCn2cnc3cnc(C#N)cc3c2=O)c(-c2cccc(C(=O)O)c2)c1 [compound 124]
7 | > 1000 | > 3000 | N#Cc1cc2c(=O)n(CCOc3ccc(O)cc3-c3cccc(C(=O)O)c3)cnc2cn1 [compound 125]
8 | > 1000 | 8360 | N#Cc1cc2c(=O)n(CCOc3ccc(C(F)F)cc3-c3cccc(C(=O)O)c3)cnc2cn1 [compound 126]
9 | 50 to 1000 | 77 | C#Cc1c(C(=O)O)cccc1-c1cc(Cl)ccc1OCCn1cnc2cnc(C#N)cc2c1=O [compound 127]
10 | 50 to 1000 | 970 | N#Cc1cc2c(=O)n(CCOc3ccc(Cl)cc3-c3cccc(-c4nn[nH]n4)c3)cnc2cn1 [compound 128]
11 | > 1000 | 3100 | CC(COc1ccc(Cl)cc1-c1cccc(C(=O)O)c1)n1cnc2cnc(C#N)cc2c1=O (stereo not drawn) [compound 129]
12 | > 1000 | 1420 | N#Cc1cc2c(=O)n(CC#Cc3ccc(Cl)cc3-c3cccc(C(=O)O)c3)cnc2cn1 [compound 130]
13 | 50 to 1000 | 600 | CC(=O)Nc1cc2c(=O)n(CCOc3ccc(Cl)cc3-c3cccc(C(=O)O)c3)cnc2cn1 [compound 131]
14 | 50 to 1000 | 624 | CNC(=O)c1cc2c(=O)n(CCOc3ccc(Cl)cc3-c3cccc(C(=O)O)c3)cnc2cn1 [compound 132]

The next lines start with the compound.

Row | Structure (SMILES) | IC50 [1] [nM] | IC50 [2] [nM]
15 | COc1c(N)cc(-c2cc(Cl)ccc2OCCn2cnc3cnc(C#N)cc3c2=O)cc1C(=O)O [compound 114] | 50 to 1000 | 333
16 | Cc1c(C(=O)O)ccnc1-c1cc(Cl)ccc1OCCn1cnc2cnc(C#N)cc2c1=O [compound 115] | > 1000 | > 3000
17 | Cc1cc(C(=O)O)c(C#N)c(-c2cc(Cl)ccc2OCCn2cnc3cnc(C#N)cc3c2=O)n1 [compound 116] | > 1000 | > 3000
18 | N#Cc1cc2c(=O)n(CCOc3ccc(Cl)cc3-c3cccc4c(C(=O)O)nccc34)cnc2cn1 [compound 118] | 50 to 1000 | 416
19 | Cc1nc2cc(Cl)c(C(F)F)c(C#N)c2c(=O)n1CCOc1ccc(Cl)cc1-c1ccnc2c(C(=O)O)csc12 [compound 119] | < 50 | 19.9
20 | Cc1nc2cc(C(F)(F)F)cc(C#N)c2c(=O)n1CC#Cc1ccc(Cl)cc1-c1ccnc2c(C(=O)O)csc12 [compound 120] | < 50 | 35.7
21 | Cc1cc(-c2cc(Cl)ccc2OCCn2c(C)nc3cc(C(F)(F)F)cc(C#N)c3c2=O)c2scc(C(=O)O)c2n1 [compound 121] | < 50 | 37.5
22 | Cc1nc2cc(C(F)(F)F)cc(C#N)c2c(=O)n1CCOc1ccc(Cl)cc1-c1ccc(F)c2c(C(=O)O)csc12 [compound 122] | < 50 | 24.4
23 | Cc1sc2c(-c3cc(Cl)ccc3OCCn3c(C)nc4c(F)cc(C(F)F)c(C#N)c4c3=O)ccnc2c1C(=O)O [compound 123] | < 50 | 36.5
24 | N#Cc1c(C(F)(F)F)ccc2ncn(CCOc3ccc(Cl)cc3-c3cccc(C(=O)O)c3)c(=O)c12 [compound 133] | 50 to 1000 | 66.5
